Structures are written as SMILES. Where only a bound is given, the exact number is not on record here.

The first assay deals with recombinant NL4-3 virus (Renilla luciferase in nef, Gag P373S; NLRluc). Description: HIV Cell Culture Assay (luciferase reporter virus in MT-2 cells). The assay is classed as cell-based. Particulars: MT-2 cells infected for 4-5 days with NLRluc recombinants; luciferase activity. The protocol: MT-2 cells and 293T cells were obtained from the NIH AIDS Research and Reference Reagent Program. MT-2 cells were propagated in RPMI 1640 media supplemented with 10% heat inactivated fetal bovine serum, […]. The 293T cells were propagated in DMEM media supplemented with 10% heat inactivated fetal bovine serum (FBS), 100 units/mL penicillin G and 100 μg/mL streptomycin. The proviral DNA clone of NL4-3 was obtained from the NIH AIDS Research and Reference Reagent Program. A recombinant NL4-3 virus, in which a section of the nef gene from NL4-3 was replaced with the Renilla luciferase gene, was used as a reference virus. In addition, residue Gag P373 was converted to P373S. Briefly, the recombinant virus was prepared by transfection of the altered proviral clone of NL4-3. Transfections were performed in 293T cells using LipofectAMINE PLUS from Invitrogen (Carlsbad, Calif.), according to manufacturer's instruction. The virus was titered in MT-2 cells using luciferase enzyme activity as a marker. Luciferase was quantitated using the Dual Luciferase kit from Promega (Madison, Wis.), with modifications to the manufacturer's protocol. The diluted Passive Lysis solution was pre-mixed with the re-suspended Luciferase Assay Reagent and the re-suspended Stop & Glo Substrate (2:1:1 ratio). Fifty (50) μL of the mixture was added to each aspirated well on assay plates and luciferase activity was measured immediately on a Wallac TriLux (Perkin-Elmer). Antiviral activities of inhibitors toward the recombinant virus were quantified by measuring luciferase activity in cells infected for 4-5 days with NLRluc recombinants in the presence serial dilutions of the inhibitor. Table 1 is the key for the data in Table 2.
Take `C=C(C)[C@@H]1CC[C@]2(NCCN3C[C@@H]4C[C@H]3CO4)CC[C@]3(C)[C@H](CC[C@@H]4[C@@]5(C)CC=C(C6=CC7C(C6)C7C(=O)O)C(C)(C)[C@@H]5CC[C@]43C)[C@@H]12` (single isomer, unassigned) [Example B7]: the EC50 – broadly, the concentration needed to bring the measured effect to its halfway point – came to 2.28 nM.

The assay is the same for the next values; noted with them: MT-2 cells infected for 4-5 days with NLRluc recombinants; luciferase activity; reported as group A/B.
Regarding `C=C(C)[C@@H]1CC[C@]2(NCCN3C[C@H]4C[C@@H]3CS4(=O)=O)CC[C@]3(C)[C@H](CC[C@@H]4[C@@]5(C)CC=C(C6=CC7C(C6)C7C(=O)O)C(C)(C)[C@@H]5CC[C@]43C)[C@@H]12` (single isomer, unassigned) [Example B5], the EC50 was less than 100 nM.

The same assay, now with this note: Renilla, NL43, MT-2 cells infected for 4-5 days with NLRluc recombinants; luciferase activity.
As to `C=C(C)[C@@H]1CC[C@]2(NCCN3C[C@@H]4C[C@H]3CO4)CC[C@]3(C)[C@H](CC[C@@H]4[C@@]5(C)CC=C(C6=CC7C(C6)C7C(=O)O)C(C)(C)[C@@H]5CC[C@]43C)[C@@H]12` (single isomer, unassigned) [Example B6], the EC50 stood at 1.42 nM. Regarding `C=C(C)[C@@H]1CC[C@]2(NC(=O)CN3C[C@@H]4CC[C@H]3C4)CC[C@]3(C)[C@H](CC[C@@H]4[C@@]5(C)CC=C(c6ccc(C(=O)O)cc6)C(C)(C)[C@@H]5CC[C@]43C)[C@@H]12` [Example 1, 4-((1R,3aS,5aR,5bR,7aR,11aS,11bR,13aR,13bR)-3a-(2-((1S,4R)-2-azabicyclo[2.2.1]heptan-2-yl)acetamido)-5a,5b,8,8,11a-pentamethyl-1-(prop-1-en-2-yl)-2,3,3a,4,5,5a,5b,6,7,7a,8,11,11a,11b,12,13,13a,13b-octadecahydro-1H-cyclopenta[a]chrysen-9-yl)benzoic acid], the EC50 was found to be 3.65 nM. Same read-out and setting: for `C=C(C)[C@@H]1CC[C@]2(NC(=O)CN3C[C@@H]4C[C@H]3CS4(=O)=O)CC[C@]3(C)[C@H](CC[C@@H]4[C@@]5(C)CC=C(c6ccc(C(=O)O)cc6)C(C)(C)[C@@H]5CC[C@]43C)[C@@H]12` [Example 2, 4-((1R,3aS,5aR,5bR,7aR,11aS,11bR,13aR,13bR)-3a-(2-((1S,4S)-2,2-dioxido-2-thia-5-azabicyclo[2.2.1]heptan-5-yl)acetamido)-5a,5b,8,8,11a-pentamethyl-1-(prop-1-en-2-yl)-2,3,3a,4,5,5a,5b,6,7,7a,8,11,11a,11b,12,13,13a,13b-octadecahydro-1H-cyclopenta[a]chrysen-9-yl)benzoic acid] the value was 1.93 nM; for `C=C(C)[C@@H]1CC[C@]2(NCCN3C[C@@H]4C[C@H]3CN4Cc3ccccc3)CC[C@]3(C)[C@H](CC[C@@H]4[C@@]5(C)CC=C(c6ccc(C(=O)O)cc6)C(C)(C)[C@@H]5CC[C@]43C)[C@@H]12` [Example 9, 4-((1R,3aS,5aR,5bR,7aR,11aS,11bR,13aR,13bR)-3a-((2-((1S,4S)-5-benzyl-2,5-diazabicyclo[2.2.1]heptan-2-yl)ethyl)amino)-5a,5b,8,8,11a-pentamethyl-1-(prop-1-en-2-yl)-2,3,3a,4,5,5a,5b,6,7,7a,8,11,11a,11b,12,13,13a,13b-octadecahydro-1H-cyclopenta[a]chrysen-9-yl)benzoic acid], 6.09 nM. Regarding `C=C(C)[C@@H]1CC[C@]2(NCCN3C[C@@H]4C[C@H]3CN4)CC[C@]3(C)[C@H](CC[C@@H]4[C@@]5(C)CC=C(c6ccc(C(=O)O)cc6)C(C)(C)[C@@H]5CC[C@]43C)[C@@H]12` [Example 10, 4-((1R,3aS,5aR,5bR,7aR,11aS,11bR,13aR,13bR)-3a-((2-((1S,4S)-2,5-diazabicyclo[2.2.1]heptan-2-yl)ethyl)amino)-5a,5b,8,8,11a-pentamethyl-1-(prop-1-en-2-yl)-2,3,3a,4,5,5a,5b,6,7,7a,8,11,11a,11b,12,13,13a,13b-octadecahydro-1H-cyclopenta[a]chrysen-9-yl)benzoic acid], the EC50 came out at 1.21 nM.

Still in this assay, the particulars now being: Renilla, NL43, MT-2 cells infected for 4-5 days with NLRluc recombinants; luciferase activity; reported as group A/B.
As to `C=C(C)[C@@H]1CC[C@]2(NCCN3C[C@H]4C[C@@H]3CS4(=O)=O)CC[C@]3(C)[C@H](CC[C@@H]4[C@@]5(C)CC=C(C6=CC7C(C6)C7C(=O)O)C(C)(C)[C@@H]5CC[C@]43C)[C@@H]12` (single isomer, unassigned) [Example B4], the EC50 was less than 100 nM.

For `C=C(C)[C@@H]1CC[C@]2(NC(=O)CN3C[C@@H]4C[C@H]3CN4Cc3ccccc3)CC[C@]3(C)[C@H](CC[C@@H]4[C@@]5(C)CC=C(c6ccc(C(=O)O)cc6)C(C)(C)[C@@H]5CC[C@]43C)[C@@H]12` [Example 3, 4-((1R,3aS,5aR,5bR,7aR,11aS,11bR,13aR,13bR)-3a-(2-((1S,4S)-5-benzyl-2,5-diazabicyclo[2.2.1]heptan-2-yl)acetamido)-5a,5b,8,8,11a-pentamethyl-1-(prop-1-en-2-yl)-2,3,3a,4,5,5a,5b,6,7,7a,8,11,11a,11b,12,13,13a,13b-octadecahydro-1H-cyclopenta[a]chrysen-9-yl)benzoic acid], the EC50 is less than 100 nM. `CC(C)[C@@H]1CC[C@]2(NC(=O)CN3C[C@@H]4C[C@H]3CS4(=O)=O)CC[C@]3(C)[C@H](CC[C@@H]4[C@@]5(C)CC=C(c6ccc(C(=O)O)cc6)C(C)(C)[C@@H]5CC[C@]43C)[C@@H]12` [Example 4, 4-((1S,3aS,5aR,5bR,7aR,11aS,11bR,13aR,13bR)-3a-(2-((1S,4S)-2,2-dioxido-2-thia-5-azabicyclo[2.2.1]heptan-5-yl)acetamido)-1-isopropyl-5a,5b,8,8,11a-pentamethyl-2,3,3a,4,5,5a,5b,6,7,7a,8,11,11a,11b,12,13,13a,13b-octadecahydro-1H-cyclopenta[a]chrysen-9-yl)benzoic acid]: the EC50 is less than 100 nM. With `C=C(C)[C@@H]1CC[C@]2(NCCN3C[C@@H]4C[C@H]3CS4(=O)=O)CC[C@]3(C)[C@H](CC[C@@H]4[C@@]5(C)CC=C(c6ccc(C(=O)O)cc6)C(C)(C)[C@@H]5CC[C@]43C)[C@@H]12` [Example 5, 4-((1R,3aS,5aR,5bR,7aR,11aS,11bR,13aR,13bR)-3a-((2-((1S,4S)-2,2-dioxido-2-thia-5-azabicyclo[2.2.1]heptan-5-yl)ethyl)amino)-5a,5b,8,8,11a-pentamethyl-1-(prop-1-en-2-yl)-2,3,3a,4,5,5a,5b,6,7,7a,8,11,11a,11b,12,13,13a,13b-octadecahydro-1H-cyclopenta[a]chrysen-9-yl)benzoic acid], the EC50 is less than 100 nM.

Consider `C=C(C)[C@@H]1CC[C@]2(N(CCO)CCN3C[C@@H]4C[C@H]3CS4(=O)=O)CC[C@]3(C)[C@H](CC[C@@H]4[C@@]5(C)CC=C(c6ccc(C(=O)O)cc6)C(C)(C)[C@@H]5CC[C@]43C)[C@@H]12` [Example 6, 4-((1R,3aS,5aR,5bR,7aR,11aS,11bR,13aR,13bR)-3a-((2-((1S,4S)-2,2-dioxido-2-thia-5-azabicyclo[2.2.1]heptan-5-yl)ethyl)(2-hydroxyethyl)amino)-5a,5b,8,8,11a-pentamethyl-1-(prop-1-en-2-yl)-2,3,3a,4,5,5a,5b,6,7,7a,8,11,11a,11b,12,13,13a,13b-octadecahydro-1H-cyclopenta[a]chrysen-9-yl)benzoic acid], for which the EC50 is less than 100 nM. Same read-out and setting: to `C=C(C)[C@@H]1CC[C@]2(NCCN3C[C@@H]4C[C@H]3CO4)CC[C@]3(C)[C@H](CC[C@@H]4[C@@]5(C)CC=C(c6ccc(C(=O)O)cc6)C(C)(C)[C@@H]5CC[C@]43C)[C@@H]12` [Example 7, 4-((1R,3aS,5aR,5bR,7aR,11aS,11bR,13aR,13bR)-3a-((2-((1S,4S)-2-oxa-5-azabicyclo[2.2.1]heptan-5-yl)ethyl)amino)-5a,5b,8,8,11a-pentamethyl-1-(prop-1-en-2-yl)-2,3,3a,4,5,5a,5b,6,7,7a,8,11,11a,11b,12,13,13a,13b-octadecahydro-1H-cyclopenta[a]chrysen-9-yl)benzoic acid] belongs less than 100 nM. Same read-out and setting: for `CC(C)[C@@H]1CC[C@]2(NCCN3C[C@@H]4C[C@H]3CO4)CC[C@]3(C)[C@H](CC[C@@H]4[C@@]5(C)CC=C(c6ccc(C(=O)O)cc6)C(C)(C)[C@@H]5CC[C@]43C)[C@@H]12` [Example 8, 4-((1S,3aS,5aR,5bR,7aR,11aS,11bR,13aR,13bR)-3a-((2-((1S,4S)-2-oxa-5-azabicyclo[2.2.1]heptan-5-yl)ethyl)amino)-1-isopropyl-5a,5b,8,8,11a-pentamethyl-2,3,3a,4,5,5a,5b,6,7,7a,8,11,11a,11b,12,13,13a,13b-octadecahydro-1H-cyclopenta[a]chrysen-9-yl)benzoic acid] the value was less than 100 nM.

For the origin of these results see patent publication US8889854B2, “C-17 bicyclic amines of triterpenoids with HIV maturation inhibitory activity” (priority 2012, dated 2014).
